The values that follow come from patent publication US20090011410A1, “METHOD FOR TAILORING ADMINISTRATION OF DRUGS BY QUANTITATION OF MRNA” (priority 2004, published 2009).

In assay [1] the test system is p21 mRNA. The assay can be described thus: drug-induced p21 mRNA expression in whole blood of healthy adults. It counts as cell-based, human. As to conditions: for p21 mRNA expression: healthy leukocytes, 2 hours at 37° C. (FIG. 1); for kinetics of p21 induction / levels of p21 mRNA upon stimulation: 0-8 hours at 37° C., 20 μM BLM. The source says: Blood was obtained from healthy adults and from two leukemic non-Hodgkin's malignant lymphoma patients. U937, KG-1, and Jurkat cells were obtained from American Type Culture Collection (ATCC, Manassas, Va.), and maintained in RPMI 1640 supplemented with 10% fetal calf serum. Of these, U937 cells are a human histiocytic lymphoma cell line, KG-1 cells are a human bone marrow myelogenous leukemia cell line, and Jurkat cells are a human T-cell lymphoblast-like, leukemia derived cell line. […] For human experiments, blood aliquots were stimulated with various anti-cancer drugs at 37° C. for 2 hours, then both p21 and BAX mRNA were measured. The anti-cancer drugs used in this study were clinical drugs, and the concentration of each drug was adjusted to typical blood levels 3-6 hours after intravenous administration.
The mRNA and cDNA were prepared from whole blood. In brief, home-made 96-well filterplates were placed over collection plates, and 150 μl 5 mM Tris, pH 7.4, was applied. Following centrifugation at 120×g for 1 min at 4° C., 50 μl of blood samples were applied to each well and immediately centrifuged at 120×g for 2 min at 4° C., followed by washing of each well with 300 μl PBS once with centrifugation at 2000×g for 5 min at 4° C. Then, 60 μl stock lysis buffer, containing for example 0.5% N-Lauroylsarcosine, 4×SSC, 10 mM Tris HCl, pH 7.4, 1 mM EDTA, 0.1% IGEPAL CA-630, and 1.791 M guanidine thiocyanate, supplemented with 1% 2-mercaptoethanol (Bio Rad, Hercules, Calif., USA), 0.5 mg/ml proteinase K (Pierce, Rockford, Ill., USA), 0.1 mg/ml salmon sperm DNA (5 Prime Eppendorf/Brinkmann, Westbury, N.Y., USA), 0.1 mg/ml E. coli tRNA (Sigma), a cocktail of 10 mM each of the specific reverse primers shown in Table 1, and standard RNA34 oligonucleotides, were applied to the filterplates, followed by incubation at 37° C. for 10 min. The filterplates were then placed over oligo(dT)-immobilized microplates (GenePlate, RNAture), and centrifuged at 2000×g for 5 min at 4° C. Following overnight storage at 4° C., the microplates were washed with 100 μl plain lysis buffer 3 times, followed by 150 μl of wash buffer (0.5 M NaCl, 10 mM Tris, pH 7.4, 1 mM EDTA) 3 times at 4° C. The cDNA was directly synthesized in each well by adding 30 μl buffer containing 1× RT-butter, 1.25 mM each of dNTP, 4 units rRNasin, and 80 units of MMLV reverse transcriptase (Promega) (without primers), and incubation at 37° C. for 2 hours. The specific primer-primed cDNA existed in solution, and oligo(dT)-primed cDNA stayed immobilized in the microplate. For TaqMan PCR (FIGS. 1, 3, 4), the resultant 4 μl cDNA solution was directly transferred to 384-well PCR plates, to which 5 μl of TaqMan universal master mix (ABI) and 1 μl oligonucleotide cocktail (15 μM each of forward and reverse primer, and 3-6 μM TaqMan probe) were applied, and PCR was conducted in PRISM 7900HT (ABI), with one cycle of 95° C. for 10 min followed by 45 cycles of 95° C. for 30 sec, 55° C. for 30 sec, and 60° C. for 1 min. For SYBR Green PCR (see FIG. 6), cDNA was diluted 3-4 fold in water, and 4 μl cDNA solution was directly transferred to 384-well PCR plates, to which 5 μl of a master mix (BioRad, Hercules, Calif.) and 1 μl of oligonucleotide cocktail (15 μM each of forward and reverse primer) were applied, and PCR was conducted in PRISM 7900HT (ABI), with one cycle of 95° C. for 10 min followed by 45 cycles of 95° C. for 30 sec and 60° C. for 1 min. Each gene was amplified in separate wells. The Ct was determined by analytical software (SDS, ABI).
In 8-well strip microtubes, 1.4 μl of 50× concentrations of drugs or controls (phosphate buffered saline (PBS) or DMSO) were added, and stored at −20° C. until use. […] Seventy μl of fresh heparinized whole blood was added into each well in triplicate, and incubated at 37° C. for 2-8 hours with the cap closed. For radiation treatment, blood was stimulated at designated doses using cesium-137.

For assay [2], the system named is p21 mRNA. The assay can be described thus: drug-induced p21 mRNA expression in whole blood of leukemia and lymphoma patients. It counts as cell-based, human.
Setting [3] is: heparinized whole blood, 100 μM VP-16 (FIG. 5B).

As to `COc1cc([C@@H]2c3cc4c(cc3[C@@H](O[C@@H]3O[C@@H]5CO[C@@H](C)O[C@H]5[C@H](O)[C@H]3O)[C@H]3COC(=O)[C@H]23)OCO4)cc(OC)c1O` [VP-16, etoposide], the p21 induction entry in assay [1] (10 μM VP-16, 2 hours at 37° C. (FIG. 9A)) is reported as “failed to induce p21 in many cases”. The p21 expression entry in assay [1] (100 μM VP-16, 2 hours at 37° C. (FIG. 9A)) is “majority of individuals exhibited increased p21 expression”. The “p21 mRNA expression” value in assay [1] (10 μM etoposide) was “no significant p21 mRNA expression”. In addition, the “p21 mRNA expression” value in assay [1] (100 μM etoposide) is on record as “expressed significantly”. Moreover, in assay [1] (setting [3]), the “kinetics of p21 induction” value was “transient induction”, the “levels of p21 mRNA upon stimulation” value is given as “significantly increased” and the “peak of transient p21 induction” value is 2 to 4 h. Also, the “p21 mRNA induction” value in assay [2] (leukemic lymphoma patient 2, 2 hours at 37° C., drug concentrations (FIG. 3)) is “induced”.

As to bleomycin [BLM], the “concentration at which significant induction of p21 was observed” value in assay [1] (0-20 μM BLM, 4 hours at 37° C. (FIG. 7)) is “more than 0.1 VM”. In addition, in assay [1] (BLM at concentrations as low as 0.2 μM, 2 hours at 37° C., all cases (FIG. 10A)), the p21 induction result is reported as “induced”. For the same compound, in assay [1] (setting [3]), the “kinetics of p21 induction” value is recorded as “increased continuously for 8 hours” and the “levels of p21 mRNA upon stimulation” value was “significantly increased”. Moreover, in assay [2] (1 μM BLM, 2 hours at 37° C., 13 leukemia and lymphoma patients vs 27 healthy donors, p=0.000002 (FIG. 15)), the “BLM-induced p21 responses (ΔCt) compared with healthy donors” value is recorded as “less than those of healthy control”.
